Laboratory results reported in ChEMBL document CHEMBL4715930, “Reactivation of the Guardian of the Genome P53: A Promising Strategy for Treatment of Cancer” (ACS Med Chem Lett, 2021).

Target: Tumour suppressor p53/oncoprotein Mdm2 (Homo sapiens, UniProt Q00987)
Test: Inhibition of GST-tagged MDM2 (23 to 117 residues) (unknown origin) assessed as inhibition of MDM2/biotinylated wild type human p53 (16 to 27 residues) interaction by measuring reactivation of p53 incubated for 15 mins by AlphaScreen assay
Format: protein assay

Chain of Tumour suppressor p53/oncoprotein Mdm2 (P04637 whole entry, the tested form may be a part): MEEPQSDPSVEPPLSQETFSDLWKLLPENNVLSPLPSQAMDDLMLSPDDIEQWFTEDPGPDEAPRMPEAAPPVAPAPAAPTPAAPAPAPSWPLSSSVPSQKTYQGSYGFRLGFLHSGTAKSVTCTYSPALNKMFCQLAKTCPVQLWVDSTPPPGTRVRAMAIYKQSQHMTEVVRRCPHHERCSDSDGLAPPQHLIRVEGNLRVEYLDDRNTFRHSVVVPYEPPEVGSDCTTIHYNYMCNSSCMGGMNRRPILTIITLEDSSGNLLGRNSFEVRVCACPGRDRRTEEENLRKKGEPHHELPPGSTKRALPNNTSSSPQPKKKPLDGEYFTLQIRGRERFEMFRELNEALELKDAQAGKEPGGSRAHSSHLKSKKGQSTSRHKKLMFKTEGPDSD
Chain of Tumour suppressor p53/oncoprotein Mdm2 (Q00987 whole entry, the tested form may be a part): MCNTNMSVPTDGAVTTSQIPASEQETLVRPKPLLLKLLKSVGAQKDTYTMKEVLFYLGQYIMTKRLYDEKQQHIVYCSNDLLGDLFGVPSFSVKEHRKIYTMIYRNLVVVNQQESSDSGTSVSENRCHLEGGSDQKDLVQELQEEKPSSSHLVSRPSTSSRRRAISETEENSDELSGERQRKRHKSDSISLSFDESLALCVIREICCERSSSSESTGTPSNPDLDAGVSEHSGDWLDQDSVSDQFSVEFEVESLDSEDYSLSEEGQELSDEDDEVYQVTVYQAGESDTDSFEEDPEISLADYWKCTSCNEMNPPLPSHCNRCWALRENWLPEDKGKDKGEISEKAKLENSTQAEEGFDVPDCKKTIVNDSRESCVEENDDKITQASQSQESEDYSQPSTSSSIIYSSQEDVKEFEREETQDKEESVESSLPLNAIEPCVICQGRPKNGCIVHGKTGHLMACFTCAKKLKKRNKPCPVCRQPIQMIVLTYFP

| IC50 [nM] | SMILES |
| --- | --- |
| 5 | CCOc1cccc(CN2[C@H]3Cc4c5cc(C)c(C(=O)NC)cc5nn4[C@H]3[C@H](c3cccc(Cl)c3F)[C@]23C(=O)Nc2nc(Cl)ccc23)c1 |
| 79 | O=C(O)c1ccc2c(c1)nc1n2CC[C@@H]2[C@H]1[C@H](c1cccc(Cl)c1F)[C@]1(C(=O)Nc3cc(Cl)ccc31)N2CC1CC1 |
| 10 | Cc1c(C(=O)N2CCCCC2)ccn2c3c(nc12)[C@@H]1[C@H](CC3)N(CC2CC2)[C@@]2(C(=O)Nc3cc(Cl)ccc32)[C@H]1c1ccnc(Cl)c1F |
